Source: ChEMBL document CHEMBL1132969, “Design, synthesis, and enzymatic evaluation of multisubstrate analogue inhibitors of Escherichia coli thymidine phosphorylase” (J Med Chem, 2000)

Key:
[1] = biological target: Thymidine phosphorylase (Escherichia coli K-12) (UniProt P07650); test: Inhibition of Escherichia coli Thymidine Phosphorylase at a concentration of 1000 uM after 60 minutes
[2] = biological target: Thymidine phosphorylase (Escherichia coli K-12) (UniProt P07650); test: Inhibition of Escherichia coli Thymidine Phosphorylase at a concentration of 1000 uM after 20 minutes
[3] = biological target: Thymidine phosphorylase (Escherichia coli K-12) (UniProt P07650); test: Inhibition of Escherichia coli Thymidine Phosphorylase at a concentration of 1000 uM after 40 minutes
[4] = biological target: Thymidine phosphorylase (Escherichia coli) (UniProt P07650); test: Inhibition of Escherichia coli TPase at a concentration of 500 uM after 20 minutes
[5] = biological target: Thymidine phosphorylase (Escherichia coli) (UniProt P07650); test: Inhibition of Escherichia coli TPase at a concentration of 500 uM after 60 minutes
[6] = biological target: Thymidine phosphorylase (Escherichia coli) (UniProt P07650); test: Inhibition of Escherichia coli TPase at a concentration of 500 uM after 40 minutes

Sequence of Thymidine phosphorylase (Escherichia coli K-12) (P07650 whole entry, looked up): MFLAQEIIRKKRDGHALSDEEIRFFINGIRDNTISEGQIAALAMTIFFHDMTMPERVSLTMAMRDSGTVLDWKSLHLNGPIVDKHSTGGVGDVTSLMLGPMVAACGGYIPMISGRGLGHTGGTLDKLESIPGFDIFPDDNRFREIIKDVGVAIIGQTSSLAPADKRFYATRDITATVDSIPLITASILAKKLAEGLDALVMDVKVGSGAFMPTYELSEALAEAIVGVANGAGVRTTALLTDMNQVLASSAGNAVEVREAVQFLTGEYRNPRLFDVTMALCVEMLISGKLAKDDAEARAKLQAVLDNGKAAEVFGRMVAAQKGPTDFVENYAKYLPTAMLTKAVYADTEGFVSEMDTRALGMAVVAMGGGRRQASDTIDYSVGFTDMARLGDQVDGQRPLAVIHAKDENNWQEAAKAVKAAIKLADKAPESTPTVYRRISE
Sequence of Thymidine phosphorylase (Escherichia coli) (P07650 whole entry, looked up): as above

inhibition [1] [%] | inhibition [2] [%] | inhibition [3] [%] | inhibition [4] [%] | inhibition [5] [%] | inhibition [6] [%] | SMILES
70 | 81 | 75 | – | – | – | Cc1cn(CCCCCCCCCP(=O)(O)O)c(=O)[nH]c1=O
94 | 97 | 96 | – | – | – | O=c1[nH]c(=O)n(CCCCCCCCP(=O)(O)O)c2[nH]ccc12
0 | 0 | 0 | – | – | – | Cc1cn(CCCCCCCCP(=O)(OC(C)C)OC(C)C)c(=O)[nH]c1=O
2 | 11 | 5 | – | – | – | Cc1cn(CCCCCCP(=O)(O)O)c(=O)[nH]c1=O
55 | 73 | 63 | – | – | – | Cc1cn(CCCCCCCP(=O)(O)O)c(=O)[nH]c1=O
89 | 94 | 91 | – | – | – | Nc1c(Br)c(=O)[nH]c(=O)n1CCCCCCCCP(=O)(O)O
0 | 0 | 0 | – | – | – | CCOP(=O)(CCCCCCCCn1cc(C)c(=O)[nH]c1=O)OCC
0 | 0 | 0 | – | – | – | CCOP(=O)(CCCCCCCn1cc(C)c(=O)[nH]c1=O)OCC
61 | 75 | 68 | – | – | – | Cc1cn(CCCCCCCCP(=O)(O)O)c(=O)[nH]c1=O
12 | 27 | 17 | – | – | – | Cc1cn(CCCCOCP(=O)(O)O)c(=O)[nH]c1=O
2 | 4 | 3 | – | – | – | CCOP(=O)(CCCCCCCCCn1cc(C)c(=O)[nH]c1=O)OCC
0 | 0 | 0 | – | – | – | Cc1cn(CCCCOCOCP(=O)(O)O)c(=O)[nH]c1=O

Further lines, the compound ahead of its results:

SMILES | inhibition [1] [%] | inhibition [2] [%] | inhibition [3] [%] | inhibition [4] [%] | inhibition [5] [%] | inhibition [6] [%]
Cc1cn(CC(O)C(O)COCP(=O)(OC(C)C)OC(C)C)c(=O)[nH]c1=O (stereo not given) | 0 | 0 | 0 | – | – | –
Cc1cn(C/C=C\COCOCP(=O)(O)O)c(=O)[nH]c1=O | 17 | 34 | 22 | – | – | –
Cc1cn(C/C=C\COCOCP(=O)(OC(C)C)OC(C)C)c(=O)[nH]c1=O | 0 | 0 | 0 | – | – | –
CCOP(=O)(CCCCCCCCn1c(N)c(Br)c(=O)[nH]c1=O)OCC | 10 | 21 | 16 | – | – | –
CCOP(=O)(CCCCCCCCn1c(=O)[nH]c(=O)c2cc[nH]c21)OCC | – | – | – | 43 | 27 | 37
Cc1cn(CC(O)C(O)COCOCP(=O)(O)O)c(=O)[nH]c1=O (stereo not given) | 0 | 0 | 0 | – | – | –
Cc1cn(CCCCOCP(=O)(OC(C)C)OC(C)C)c(=O)[nH]c1=O | 0 | 0 | 0 | – | – | –
Cc1cn(C/C=C\COCP(=O)(O)O)c(=O)[nH]c1=O | 0 | 0 | 0 | – | – | –
Cc1cn(CCCCOCOCP(=O)(OC(C)C)OC(C)C)c(=O)[nH]c1=O | 0 | 0 | 0 | – | – | –
Cc1cn(CC(O)C(O)COCP(=O)(O)O)c(=O)[nH]c1=O (stereo not given) | 0 | 0 | 0 | – | – | –
Cc1cn(C/C=C\COCP(=O)(OC(C)C)OC(C)C)c(=O)[nH]c1=O | 0 | 0 | 0 | – | – | –
Cc1cn(COC/C=C\COCP(=O)(O)O)c(=O)[nH]c1=O | 0 | 0 | 0 | – | – | –
Cc1cn(CC(O)C(O)COCOCP(=O)(OC(C)C)OC(C)C)c(=O)[nH]c1=O (stereo not given) | 0 | 0 | 0 | – | – | –
